The source of these data is patent US11155636B2, “PRL3 antibody” (Agency for Science, Technology and Research, priority 2016, dated 2021).

On the set-up of data set [1]: species or system Balb/C nude mice. Particulars: mouse, in vivo. As to the method: WBC staining of mouse blood smears: After smearing a thin layer from a drop of fresh mouse blood on a glass slide, slides were baked at 37° C. for 1 h before flooding with modified Wright Giemsa stain (Sigma) for 1 min followed by washing with deionized water for 3 min. After drying, the stained slide was observed under microscope, with WBCs stained blue. Estimation of total WBC was performed under light microscopy (Olympus) by counting in ten visual fields in each slide and calculation using the equation WBCs/μl=(total number of counted WBC/number of fields)×2000. Full blood counts: Hematological analysis of mice samples was conducted by Quest Laboratories (Singapore).
We tested four treatment protocols: PBS control (Group 1), PRL3-zumab monotherapy (Group 2), PRL3-zumab+5-FU combination therapy (Group 3), or 5-FU monotherapy (Group 4). According to the treatment protocol, bi-weekly doses of PRL3-zumab (100 μg/dose) or 5-FU (30 mg/kg/dose) were administered individually, or in combination, intravenously into groups of nude mice carrying orthotopic PRL-3^+ SNU-484 gastric tumors.

Data set [2] deals with PRL-3^+ SNU-484 orthotopic gastric tumors. Put plainly: Orthotopic gastric cancer model, SNU-484. The class given is in vivo, Balb/C nude mice.
Procedure: Eight-week old male Balb/C nude mice obtained from the Biological Resource Centre (A*STAR, Singapore) were used for all animal models in this study. […] The stomach was taken out through the abdominal incision by surgical forceps, and cancer cells were injected into the subserosa layer. Subsequently, the stomach was placed back and the abdomen was sutured back in layers. […] The treatment regime commenced on day 2 post-inoculation of cancer cells in the gastric subserosa layer. […] PBS was used as a control in “untreated” mice. […] Tumor volumes were calculated using the formula: volume=0.4×tumor length×tumor width×tumor width.
10 μm-thick cryosection slides were fixed with 4% formalin for 20 min and incubated with 1% H2O2-PBS in the dark for 5 min. Washed slides were then blocked in PBS containing 10% goat serum and 1% BSA (Sigma) for 1 h at RT. Subsequently, slides were washed four times in PBS-0.05% Tween-20 with gentle shaking and incubated with goat anti-human labeled polymer-HRP (Dako) for 2 h before washing extensively and incubating with substrate-chromogen solution (Dako) for 10-20 min in the dark. Mounted slides were examined using a brightfield microscope (Olympus) and representative images were captured.
In data set [3] the test system is PRL-3+ and PRL-3− cancer cells. The experiment in a line: In vitro cancer cell growth assay. The class given is cell-based. Conditions: PRL-3+ and PRL-3− cells; PRL3-zumab up to 50 mg/mL.
For data set [4], the system named is advanced HCC. Particulars: cited from earlier work.

Consider `O=c1[nH]cc(F)c(=O)[nH]1` [5-FU, 5-fluorouracil], for which, in data set [1], the “haematological profile (full blood counts)” value was “reduced neutrophil, lymphocyte, and monocyte counts”; the overall animal activity result is reported as “reduction in overall animal activity”; the “reduction in peripheral WBC counts compared to control or PRL3-zumab monotherapy” value is given as 5 fold. In data set [2] (four-group study, bi-weekly i.v. PRL3-zumab 100 μg/dose and/or 5-FU 30 mg/kg/dose, Day 28, n=5 per group), this molecule returned a mean tumor volume of 1.76±0.52 cm^3. Further, in data set [2] (tumor sections, compared to untreated), the “numbers of infiltrating B cells and NK cells (immunofluorescence)” value is given as “lack of B or NK cell infiltration”.

With `N.N.[Cl][Pt][Cl]` [cisplatin], the “cancer cell growth in vitro” value in data set [3] is listed as “dose-dependent, nonspecific cell killing”.

For `CNC(=O)c1cc(Oc2ccc(NC(=O)Nc3ccc(Cl)c(C(F)(F)F)c3)cc2)ccn1` [Sorafenib], the extended median survival in data set [4] is reported as 2.8 months.
